According to ChEMBL document CHEMBL5113527, “First-in-Class Hydrazide-Based HDAC6 Selective Inhibitor with Potent Oral Anti-Inflammatory Activity by Attenuating NLRP3 Inflammasome Activation” (J Med Chem, 2022):

Tests used:
[1] = target: T1, Histone deacetylase 2 (Homo sapiens, UniProt Q92769); assay: Inhibition of recombinant HDAC2 (unknown origin) using Boc-Lys(acetyl)-AMC as substrate preincubated for 1 hr followed by substrate addition and measured after 2 hrs by fluorescence based microplate reader analysis
[2] = target: T2, Histone deacetylase 3 (Homo sapiens, UniProt O15379); assay: Inhibition of recombinant HDAC3 (unknown origin) using Boc-Lys(acetyl)-AMC as substrate preincubated for 1 hr followed by substrate addition and measured after 2 hrs by fluorescence based microplate reader analysis
[3] = target: Histone deacetylase 1 (Homo sapiens, UniProt Q13547); assay: Inhibition of recombinant HDAC1 (unknown origin) using Boc-Lys(acetyl)-AMC as substrate preincubated for 1 hr followed by substrate addition and measured after 2 hrs by fluorescence based microplate reader analysis
[4] = target: T3, Protein deacetylase HDAC6 (Homo sapiens, UniProt Q9UBN7); assay: Inhibition of recombinant HDAC6 (unknown origin) using Boc-Lys(acetyl)-AMC as substrate preincubated for 1 hr followed by substrate addition and measured after 2 hrs by fluorescence based microplate reader analysis
T3 sequence (Q9UBN7 whole entry): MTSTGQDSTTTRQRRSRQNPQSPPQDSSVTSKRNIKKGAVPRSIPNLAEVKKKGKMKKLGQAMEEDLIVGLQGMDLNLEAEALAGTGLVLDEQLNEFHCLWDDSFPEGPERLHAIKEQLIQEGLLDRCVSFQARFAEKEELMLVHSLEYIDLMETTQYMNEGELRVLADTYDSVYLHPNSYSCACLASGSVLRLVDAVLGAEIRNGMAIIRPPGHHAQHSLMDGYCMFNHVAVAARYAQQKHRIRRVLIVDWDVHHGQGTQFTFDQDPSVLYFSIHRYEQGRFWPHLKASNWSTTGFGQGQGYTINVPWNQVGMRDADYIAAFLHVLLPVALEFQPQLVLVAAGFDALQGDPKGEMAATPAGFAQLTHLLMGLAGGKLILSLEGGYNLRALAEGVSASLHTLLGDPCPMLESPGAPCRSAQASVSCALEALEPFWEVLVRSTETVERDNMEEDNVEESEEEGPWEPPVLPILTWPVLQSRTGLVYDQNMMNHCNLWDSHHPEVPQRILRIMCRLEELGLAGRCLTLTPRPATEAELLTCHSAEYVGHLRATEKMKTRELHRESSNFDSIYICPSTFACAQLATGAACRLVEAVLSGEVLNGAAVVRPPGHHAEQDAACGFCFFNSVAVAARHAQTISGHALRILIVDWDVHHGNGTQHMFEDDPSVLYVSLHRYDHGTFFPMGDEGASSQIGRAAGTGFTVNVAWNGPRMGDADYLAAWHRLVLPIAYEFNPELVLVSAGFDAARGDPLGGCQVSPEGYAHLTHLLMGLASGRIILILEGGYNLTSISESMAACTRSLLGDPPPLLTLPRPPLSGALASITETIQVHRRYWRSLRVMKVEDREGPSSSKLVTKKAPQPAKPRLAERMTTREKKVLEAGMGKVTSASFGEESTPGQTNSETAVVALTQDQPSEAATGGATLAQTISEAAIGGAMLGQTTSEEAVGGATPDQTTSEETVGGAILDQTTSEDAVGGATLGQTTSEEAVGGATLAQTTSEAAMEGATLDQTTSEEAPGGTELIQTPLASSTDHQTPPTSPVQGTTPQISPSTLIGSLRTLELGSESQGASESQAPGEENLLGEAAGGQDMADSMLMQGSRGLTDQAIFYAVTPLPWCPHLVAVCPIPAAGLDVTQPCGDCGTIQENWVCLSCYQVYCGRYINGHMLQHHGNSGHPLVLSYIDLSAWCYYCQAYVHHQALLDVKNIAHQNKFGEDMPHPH

[5] = organism: Homo sapiens; assay: Selectivity index, ratio of IC50 for recombinant HDAC1(unknown origin) to IC50 for full length recombinant human HDAC6
[6] = target: T2, Histone deacetylase 3; assay: Inhibition of HDAC3 (unknown origin)
[7] = Half life in CD-1 mouse at 5 mg/kg, iv measured after 0.083 to 24 hrs by LC-MS/MS analysis; type: ADME, organism-based; conditions: in vivo, time 0.083-24 hrs
[8] = Inhibition of HDAC11(unknown origin) preincubated for 1 hr followed by substrate addition and measured after 2 hrs by fluorescence based microplate reader analysis; set-up: species or system Homo sapiens
[9] = AUC(0 to infinity) in CD-1 mouse at 5 mg/kg, iv measured after 0.083 to 24 hrs by LC-MS/MS analysis; type: ADME, organism-based; set-up: dose 5 mg/kg, time upper 24 hrs, time lower 0.083 hrs, route iv; conditions: in vivo
[10] = Cmax in CD-1 mouse at 5 mg/kg, iv measured after 0.083 to 24 hrs by LC-MS/MS analysis; type: ADME, organism-based; set-up: dose 5 mg/kg, time 0.083-24 hrs, route iv; conditions: in vivo
[11] = target: T1, Histone deacetylase 2; assay: Inhibition of HDAC2 (unknown origin)

Histone deacetylase 1, sequence (Q13547 whole entry): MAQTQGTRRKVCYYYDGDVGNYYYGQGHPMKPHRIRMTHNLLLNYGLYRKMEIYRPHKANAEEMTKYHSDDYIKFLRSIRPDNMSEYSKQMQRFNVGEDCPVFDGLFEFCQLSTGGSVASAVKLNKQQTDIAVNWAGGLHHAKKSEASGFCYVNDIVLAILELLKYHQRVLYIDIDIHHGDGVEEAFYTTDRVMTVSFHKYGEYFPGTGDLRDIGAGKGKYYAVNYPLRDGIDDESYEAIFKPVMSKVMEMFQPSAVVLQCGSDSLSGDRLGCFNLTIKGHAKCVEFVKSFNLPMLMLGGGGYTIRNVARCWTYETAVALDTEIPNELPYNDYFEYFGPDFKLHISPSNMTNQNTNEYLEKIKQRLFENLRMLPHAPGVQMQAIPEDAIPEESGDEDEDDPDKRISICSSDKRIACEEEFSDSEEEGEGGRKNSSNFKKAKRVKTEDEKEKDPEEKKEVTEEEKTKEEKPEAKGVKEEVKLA
T1 sequence (Q92769 whole entry): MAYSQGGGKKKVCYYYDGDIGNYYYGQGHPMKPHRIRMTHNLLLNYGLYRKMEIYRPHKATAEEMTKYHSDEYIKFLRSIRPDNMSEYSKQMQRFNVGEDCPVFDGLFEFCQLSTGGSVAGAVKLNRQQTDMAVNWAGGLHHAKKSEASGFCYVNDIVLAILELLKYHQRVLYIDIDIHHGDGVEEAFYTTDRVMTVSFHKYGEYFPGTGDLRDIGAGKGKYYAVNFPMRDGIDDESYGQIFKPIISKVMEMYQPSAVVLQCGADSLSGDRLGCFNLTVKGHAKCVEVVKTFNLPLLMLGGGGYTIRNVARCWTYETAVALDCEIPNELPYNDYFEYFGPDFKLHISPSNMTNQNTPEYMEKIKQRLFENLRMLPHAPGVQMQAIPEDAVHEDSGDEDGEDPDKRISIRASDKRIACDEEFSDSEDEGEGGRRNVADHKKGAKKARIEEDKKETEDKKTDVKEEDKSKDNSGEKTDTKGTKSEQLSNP
T2 sequence (O15379 whole entry): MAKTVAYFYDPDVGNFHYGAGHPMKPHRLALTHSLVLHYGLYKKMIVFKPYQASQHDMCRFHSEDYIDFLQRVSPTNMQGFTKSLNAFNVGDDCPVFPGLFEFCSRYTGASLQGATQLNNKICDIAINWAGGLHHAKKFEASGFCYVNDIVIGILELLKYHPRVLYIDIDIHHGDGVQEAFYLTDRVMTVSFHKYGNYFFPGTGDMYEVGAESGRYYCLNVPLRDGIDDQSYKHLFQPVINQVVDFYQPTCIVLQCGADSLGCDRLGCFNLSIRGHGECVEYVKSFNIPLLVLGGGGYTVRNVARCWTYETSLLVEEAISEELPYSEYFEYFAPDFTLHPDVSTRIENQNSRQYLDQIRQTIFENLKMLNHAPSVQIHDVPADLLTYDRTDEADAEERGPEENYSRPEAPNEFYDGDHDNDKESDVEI

| IC50 [1] [nM] | IC50 [2] [nM] | IC50 [3] [nM] | IC50 [4] [nM] | Ratio IC50 [5] | IC50 [6] [nM] | half-life [7] [h] | IC50 [8] [nM] | AUC(0-inf) [9] [ng·h/mL] | Cmax [10] [ng/mL] | IC50 [11] [nM] | Structure (SMILES) |
| --- | --- | --- | --- | --- | --- | --- | --- | --- | --- | --- | --- |
| 78 | 191 | 341 | 132 | 2.5 |  |  |  |  |  |  | CCCCN(Cc1ccc(C(=O)NNCC)cc1)C(=O)Nc1ccccc1 |
| 4120 | 563 | 2520 | 37 | 68 |  |  |  |  |  |  | CCNNC(=O)c1ccc(CN2c3ccccc3C=Cc3ccc(F)cc32)cc1 |
| 82 | 147 | 659 | 41 |  |  |  |  |  |  |  | CCNNC(=O)c1ccc(CNc2cccc3cccnc23)cc1 |
| > 5000 | 1770 | 3990 | 61 | 65 |  |  |  |  |  |  | CCNNC(=O)c1ccc(CN2c3ccccc3Sc3cccnc32)cc1 |
| > 5000 | > 5000 | 3920 | 105 | 37 |  |  |  |  |  |  | CCNNC(=O)c1ccc(CN2c3ccccc3CC(=O)c3ccccc32)cc1 |
| 6 | 0.9 | 3 | 34 |  |  |  |  |  |  |  | CCNNC(=O)c1ccc(CNC(=O)Nc2cccc3cccnc23)cc1 |
| > 5000 | 1430 | 3190 | 235 | 13 |  |  |  |  |  |  | CCNNC(=O)c1ccc(CN2c3ccccc3Cc3ccccc32)cc1 |
|  |  |  |  |  | 6080 |  |  |  |  |  | CCCCN(Cc1ccc(C(=O)NO)cc1)C(=O)Nc1ccccc1 [NEXTURASTAT A] |
| 187 | 446 | 1270 | 189 | 6.7 |  |  |  |  |  |  | CCCCN(Cc1ccc(C(=O)NNCC)cc1)C(=O)c1ccccc1 |
|  |  |  |  |  |  | 2.62 | > 5000 | 342 | 372 |  | O=C(CCCCCCNC(=O)c1cnc(N(c2ccccc2)c2ccccc2)nc1)NO [RICOLINOSTAT] |
| 233 | 446 | 1430 | 1530 | 0.9 |  |  |  |  |  |  | CCNNC(=O)c1ccc(NC(=O)Nc2cccc3cccnc23)cc1 |
| > 5000 | 1610 | 2300 | 42 | 54 |  |  |  |  |  |  | CCNNC(=O)c1ccc(CN2c3ccccc3C=Cc3ccccc32)cc1 |
|  |  |  |  |  | 29500 |  |  |  |  | 32800 | O=C(NO)c1ccc(CN2CCCc3ccccc32)cc1 |
| 316 | > 5000 | > 5000 | > 5000 |  |  |  |  |  |  |  | CCNNC(=O)c1csc(-c2cccnc2)n1 |
| > 5000 | 1160 | 2260 | 47 | 48 |  |  |  |  |  |  | CCNNC(=O)c1ccc(CN2c3ccccc3C=Cc3nc(C)nc(C)c32)cc1 |
| > 5000 | 3130 | > 5000 | 843 | > 6 |  |  |  |  |  |  | CCNNC(=O)c1ccc(CN2c3ccccc3Oc3ccccc32)cc1 |
|  |  | 13 | > 5000 | 0.002 |  |  |  |  |  |  | CCCNNC(=O)c1ccc(CNC(=O)c2ccccc2)cc1 |
| 2340 | 1590 | 2860 | 37 | 77 |  |  |  |  |  |  | CCNNC(=O)c1ccc(Cn2c3ccccc3c3cccnc32)cc1 |
